Source: patent US20100292289A1 (priority 2007, published 2010)
Like-named read-outs stand apart in the source and are kept apart here.

Tests used:
[1] = in vivo; parameters: species or system Sprague-Dawley rats; details: rat; for bioavailability: male, Sprague-Dawley, po, 20 mg/kg; for half-life: male Sprague-Dawley rats
Description: The pharmacokinetics of compounds 4a, 6a, and 12 was evaluated in male Sprague-Dawley rats (n=3) following single intravenous (i.v., 1 mg/kg) or oral (p.o., 20 mg/kg) doses.

[2] = biological target: T1, CB1 receptor (Homo sapiens, UniProt P21554); experiment: FLIPR calcium flux assay, agonist format, CB1; assay type: cell-based; details: Emax of reference agonist CP-55,940 as 100%
T1 sequence (P21554 whole entry): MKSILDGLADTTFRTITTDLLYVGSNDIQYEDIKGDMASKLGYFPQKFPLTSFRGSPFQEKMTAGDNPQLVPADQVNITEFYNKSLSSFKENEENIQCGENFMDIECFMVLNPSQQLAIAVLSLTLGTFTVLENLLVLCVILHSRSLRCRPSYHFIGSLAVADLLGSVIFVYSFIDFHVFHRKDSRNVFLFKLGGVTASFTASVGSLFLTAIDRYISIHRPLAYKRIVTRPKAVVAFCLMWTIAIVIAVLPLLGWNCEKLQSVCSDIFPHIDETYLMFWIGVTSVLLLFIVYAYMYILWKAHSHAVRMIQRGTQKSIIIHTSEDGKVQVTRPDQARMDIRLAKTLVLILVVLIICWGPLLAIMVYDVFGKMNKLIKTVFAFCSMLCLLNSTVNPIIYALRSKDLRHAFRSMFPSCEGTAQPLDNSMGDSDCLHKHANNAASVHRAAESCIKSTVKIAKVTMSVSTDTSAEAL
Description: (§1) A FLIPR assay was conducted to monitor agonist and antagonist selectivity for compounds of the invention against the CBI and GLP-1 receptors. Percentage activation and percentage inhibition values were determined for each compound on each of the GPCRs listed above. Agonist selectivity was determined upon initial addition of compounds followed by 10 minute incubation at 25° C. Following compound incubation, reference agonists were added at EC80 to determine percentage inhibition.
(§2) Agonist percentage activation determinations were obtained by assaying sample compounds and referencing the Emax control for each of the GPCRs profiled. Antagonist percentage inhibition determinations were obtained by assaying sample compounds and referencing the control EC80 wells for each of the GPCRs profiled. The protocol design is as follows:
(§3) Unless specified otherwise, all sample compounds were diluted in 100% anhydrous DMSO including all serial dilutions. Occasionally sample compounds were provided in a different solvent, in this case all master stock dilutions were performed in the specified diluent. All control wells contained identical solvent final concentrations as sample compound wells.
(§4) Sample compounds were transferred from a master stock solution into a daughter plate that was used in the assay. Each sample compound was diluted into assay buffer (1×HBSS with 20 mM HEPES) at an appropriate concentration to obtain final concentrations.
(§5) All sample compounds were plated at 1 μM in duplicate for assaying against all GPCRs. Reference agonists were handled as mentioned above serving as assay control. These reference agonists were handled as described above for both EMax and EC80 control wells. Assay was read for 90 seconds using the FLIPRTETRA. (This assay run added sample compounds and reference agonist to respective rows.) At the completion of the first “Single Addition” assay run, assay plate was removed from the FLIPRTetra and placed at 25° C. for 10 minutes.
(§6) All plates were subjected to appropriate baseline corrections. Once baseline corrections were processed, maximum fluorescence values were exported and data manipulated to calculate percentage activation, percentage inhibition, Z′, EC50, and IC50. Percentage activation data was calculated using Emax as 100% control. Percentage inhibition was calculated using EC80 as 0% inhibition.

[3] = biological target: T1, CB1 receptor; experiment: FLIPR calcium flux assay, antagonist format, CB1; assay type: cell-based; details: reference agonist CP-55,940 at EC80 as 0% inhibition
Description: as §1, §2, §3, §4
(§7) Using the EC50 values determined previously, stimulated all pre-incubated sample compound and reference antagonist (if applicable) wells with EC80 of reference agonist. Read for 90 seconds using the FLIPRTETRA. (This assay added reference agonist to respective wells—then fluorescence measurements were collected to calculate percentage inhibition.)
as §6

[4] = biological target: T2, GLP-1 receptor (Homo sapiens, UniProt P43220); experiment: FLIPR calcium flux assay, agonist format, GLP-1; assay type: cell-based; details: Emax of reference ligand Glucagon as 100%
T2 sequence (P43220 24-463): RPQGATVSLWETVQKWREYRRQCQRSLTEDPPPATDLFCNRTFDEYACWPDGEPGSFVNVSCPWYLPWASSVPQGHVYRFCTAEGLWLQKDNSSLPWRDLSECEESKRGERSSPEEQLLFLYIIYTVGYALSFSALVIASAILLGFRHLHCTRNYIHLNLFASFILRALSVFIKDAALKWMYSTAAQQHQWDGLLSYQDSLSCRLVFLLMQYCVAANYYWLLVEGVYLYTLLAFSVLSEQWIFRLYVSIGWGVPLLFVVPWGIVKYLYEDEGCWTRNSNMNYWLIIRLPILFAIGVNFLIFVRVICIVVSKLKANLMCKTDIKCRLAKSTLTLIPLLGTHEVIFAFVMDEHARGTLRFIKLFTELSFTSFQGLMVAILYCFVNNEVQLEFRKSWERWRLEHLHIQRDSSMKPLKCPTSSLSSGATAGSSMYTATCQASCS
Description: as §1, §2, §3, §4, §5, §6

[5] = biological target: T2, GLP-1 receptor; experiment: FLIPR calcium flux assay, antagonist format, GLP-1; assay type: cell-based; details: 1 μM, reference ligand Glucagon at EC80 as 0% inhibition; read-out: % Inhibition Antagonist GLP-1
Description: as §1, §2, §3, §4, §7, §6

[6] = system: non-insulin dependent diabetic mellitus (NIDDM) male mice (C57BL/KsJ-db/db Jcl); experiment: In vivo analysis in the db/db mouse (serum insulin, serum glucose, weight); details: for percentage increase in insulin levels: FIG. 1; for percentage decrease in glucose levels: FIG. 2; for percentage decrease in weight: FIG. 3
Description: […] All animals were allowed free access to normal laboratory chow and water.
Serum glucose and insulin levels were determined by Enzymatic Method (Mutaratase-GOD) and ELISA (mouse insulin assay kit) from orbital sinus blood samples obtained before (pretreatment) and 90 minutes after the last vehicle and/or test substance administration (postreatment) and percent change was determined.

[7] = iv, single i.v. dose 1 mg/kg, read-out: t1/2 (i.v., hr) (converted)
[8] = single oral dose 20 mg/kg, read-out: t1/2 (p.o., hr) (converted)
[9] = 200 mg/kg oral gavage once daily for three days

CC(C)Cc1ccc([C@H](C)C(=O)NCC[C@@H](Oc2ccc(C(F)(F)F)cc2)c2ccccc2)cc1 [Compound 4a]
bioavailability [1]: 5.1%
half-life [1, 7]: 0.6 h
half-life [1, 8]: 1 h
activation at 1 µM [2]: 3.2%
inhibition at 1 µM [3]: 7.7%
activation at 1 µM [4]: 39.9%
inhibition at 1 µM [5]: -21.8%

C[C@H](C(=O)NCC[C@@H](Oc1ccc(C(F)(F)F)cc1)c1ccccc1)c1cccc(C(=O)c2ccccc2)c1 [Compound 6a]
bioavailability [1]: 14.8%
half-life [1, 7]: 1.4 h
half-life [1, 8]: 2.1 h
activation at 1 µM [2]: 4.2%
percentage increase in insulin levels [6, 9]: significant increases
percentage decrease in glucose levels [6, 9]: significant decreases
percentage decrease in weight [6, 9]: significant decreases
inhibition at 1 µM [3]: 77.9%
activation at 1 µM [4]: 38.6%
inhibition at 1 µM [5]: -7.2%

CC(C)Cc1ccc([C@H](C)C(=O)N(C)CCC(Oc2ccc(C(F)(F)F)cc2)c2ccccc2)cc1 (stereo partly drawn) [Compound 12]
bioavailability [1]: 6.5%
half-life [1, 7]: 1.7 h
half-life [1, 8]: 1.4 h
activation at 1 µM [2]: 4.1%
inhibition at 1 µM [3]: 3.2%
activation at 1 µM [4]: 44.6%
inhibition at 1 µM [5]: -14.9%

CC(C)Cc1ccc([C@H](C)C(=O)N(C)CC[C@@H](Oc2ccc(C(F)(F)F)cc2)c2ccccc2)cc1 [Compound 12a]
activation at 1 µM [2]: 3.6%
percentage increase in insulin levels [6, 9]: significant increases
percentage decrease in glucose levels [6, 9]: significant decreases
percentage decrease in weight [6, 9]: significant decreases
inhibition at 1 µM [3]: 52.2%
activation at 1 µM [4]: 7.6%
inhibition at 1 µM [5]: 4.5%

CC(C)Cc1ccc([C@H](C)C(=O)N(C)CC[C@H](Oc2ccc(C(F)(F)F)cc2)c2ccccc2)cc1 [Compound 12b]
activation at 1 µM [2]: 8.3%
percentage increase in insulin levels ([6]; 100 mg/kg oral gavage once daily for three days): significant increase
percentage increase in insulin levels [6, 9]: significant increases
percentage decrease in glucose levels [6, 9]: significant decreases
percentage decrease in weight [6, 9]: significant decreases
inhibition at 1 µM [3]: 1.6%
activation at 1 µM [4]: 24.5%
inhibition at 1 µM [5]: 5.9%

CN(C)C(=N)N=C(N)N [metformin, reference compound]
percentage increase in insulin levels ([6]; 300 mg/kg oral): does not show an increase
percentage decrease in glucose levels ([6]; 300 mg/kg oral): significant decrease
percentage decrease in weight ([6]; 300 mg/kg oral): does not show a decrease
